Laboratory results published in patent US20140107100A1, “Benzoxazepines as Inhibitors of PI3K/mTOR and Methods of Their Use and Manufacture” (EXELIXIS, INC., priority 2010, published 2014).
pIC50: −log10 of the molar value.

Target: mTOR/GbL/Raptor (mTORC1) (Homo sapiens, UniProt P42345)
Assay: mTOR/GbL/Raptor (mTORC1) ELISA assay, phosphorylation of 4E-BP1
Format: biochemical
Conditions: 0.2 nM mTORC1, 40 uM ATP, 50 nM NHis-tagged 4E-BP1, 120 minutes; read-out: IC50 in this assay (mTORC1 ELISA)
Procedure, shortened: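 Phospho-4E-BP1 was quantified by luminescent ELISA (anti-phospho-4E-BP1 IgG, HRP-tagged secondary) after capture of the His-tagged substrate on Ni-chelate plates.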

Row | SMILES | pIC50
1 | Cc1cc(-c2ccn[nH]2)cc2c1OCCN(c1nc(N)nc(C)c1C(C)C)C2 [Compound 72, 4-methyl-5-(1-methylethyl)-6-[9-methyl-7-(1H-pyrazol-5-yl)-2,3-dihydro-1,4-benzoxazepin-4(5H)-yl]pyrimidin-2-amine] | 6.30 to 7.00
2 | Cc1cc(-c2cccc(C(N)=O)c2)cc2c1OCCN(c1nc(N)nc(C)c1C(C)C)C2 [Compound 77, 3-{4-[2-amino-6-methyl-5-(1-methylethyl)pyrimidin-4-yl]-9-methyl-2,3,4,5-tetrahydro-1,4-benzoxazepin-7-yl}benzamide] | 6.30 to 7.00
3 | COc1cncc(-c2cc(C)c3c(c2)CN(c2nc(N)nc(C)c2C(C)C)CCO3)c1 [Compound 79, 4-methyl-5-(1-methylethyl)-6-{9-methyl-7-[5-(methyloxy)pyridin-3-yl]-2,3-dihydro-1,4-benzoxazepin-4(5H)-yl}pyrimidin-2-amine] | 6.30 to 7.00
4 | COc1ncc(-c2cc(C)c3c(c2)CN(c2nc(N)nc(C)c2C(C)C)CCO3)cn1 [Compound 82, 4-methyl-5-(1-methylethyl)-6-{9-methyl-7-[2-(methyloxy)pyrimidin-5-yl]-2,3-dihydro-1,4-benzoxazepin-4(5H)-yl}pyrimidin-2-amine] | 6.30 to 7.00
5 | Cc1cc(-c2ccnc(F)c2)cc2c1OCCN(c1nc(N)nc(C)c1C(C)C)C2 [Compound 83, 4-[7-(2-fluoropyridin-4-yl)-9-methyl-2,3-dihydro-1,4-benzoxazepin-4(5H)-yl]-6-methyl-5-(1-methylethyl)pyrimidin-2-amine] | 6.30 to 7.00
6 | Cc1cc(-c2cnc3sc(N)nc3c2)cc2c1OCCN(c1nc(S(C)(=O)=O)nc(C)c1C(C)C)C2 [Compound 86, 6-{9-methyl-4-[6-methyl-5-(1-methylethyl)-2-(methylsulfonyl)pyrimidin-4-yl]-2,3,4,5-tetrahydro-1,4-benzoxazepin-7-yl}[1,3]thiazolo[5,4-b]pyridin-2-amine] | ≥ 7.00
7 | Cc1cc(-c2cnc3sc(N)nc3c2)cc2c1OCCN(c1nc(CN3CCCC3)ncc1C(C)C)C2 [Compound 92, 6-{9-methyl-4-[5-(1-methylethyl)-2-(pyrrolidin-1-ylmethyl)pyrimidin-4-yl]-2,3,4,5-tetrahydro-1,4-benzoxazepin-7-yl}[1,3]thiazolo[5,4-b]pyridin-2-amine] | ≥ 7.00
8 | COCc1nc(C)c(C(C)C)c(N2CCOc3c(C)cc(-c4cnc5sc(N)nc5c4)cc3C2)n1 [Compound 93, 6-(9-methyl-4-{6-methyl-5-(1-methylethyl)-2-[(methyloxy)methyl]pyrimidin-4-yl}-2,3,4,5-tetrahydro-1,4-benzoxazepin-7-yl)[1,3]thiazolo[5,4-b]pyridin-2-amine] | ≥ 7.00
9 | Cc1cc(-c2cnc3sc(N)nc3c2)cc2c1OCCN(c1nc(C(C)O)nc(C)c1C(C)C)C2 (centres unmarked) [Compound 98, 1-{4-[7-(2-amino[1,3]thiazolo[5,4-b]pyridin-6-yl)-9-methyl-2,3-dihydro-1,4-benzoxazepin-4(5H)-yl]-6-methyl-5-(1-methylethyl)pyrimidin-2-yl}ethanol] | ≥ 7.00
10 | Cc1cc(-c2cnc3sc(N)nc3c2)cc2c1OCCN(c1nc([S+](C)[O-])nc(C)c1C(C)C)C2 (centres unmarked) [Compound 99, 6-{9-methyl-4-[6-methyl-5-(1-methylethyl)-2-(methylsulfinyl)pyrimidin-4-yl]-2,3,4,5-tetrahydro-1,4-benzoxazepin-7-yl}[1,3]thiazolo[5,4-b]pyridin-2-amine] | ≥ 7.00
11 | Cc1cc(-c2cnc3sc(N)nc3c2)cc2c1OCCN(c1nc(CN(C)C(C)(C)C)nc(C)c1C(C)C)C2 [Compound 100, 6-{4-[2-{[(1,1-dimethylethyl)(methyl)amino]methyl}-6-methyl-5-(1-methylethyl)pyrimidin-4-yl]-9-methyl-2,3,4,5-tetrahydro-1,4-benzoxazepin-7-yl}[1,3]thiazolo[5,4-b]pyridin-2-amine] | 6.30 to 7.00
12 | Cc1cc(-c2cnc3sc(N)nc3c2)cc2c1OCCN(c1nc(CNCC(F)(F)F)nc(C)c1C(C)C)C2 [Compound 103, 6-{9-methyl-4-[6-methyl-5-(1-methylethyl)-2-{[(2,2,2-trifluoroethyl)amino]methyl}pyrimidin-4-yl]-2,3,4,5-tetrahydro-1,4-benzoxazepin-7-yl}[1,3]thiazolo[5,4-b]pyridin-2-amine] | 6.30 to 7.00

Results, then the compound that gave them:

Row | pIC50 | SMILES
13 | 6.30 to 7.00 | Cc1cc(-c2ccc3c(c2)OCO3)cc2c1OCCN(c1nc(N)nc(C)c1C(C)C)C2 [Compound 73, 4-[7-(1,3-benzodioxol-5-yl)-9-methyl-2,3-dihydro-1,4-benzoxazepin-4(5H)-yl]-6-methyl-5-(1-methylethyl)pyrimidin-2-amine]
14 | 6.30 to 7.00 | COc1ccc(-c2cc(C)c3c(c2)CN(c2nc(N)nc(C)c2C(C)C)CCO3)cn1 [Compound 74, 4-methyl-5-(1-methylethyl)-6-{9-methyl-7-[6-(methyloxy)pyridin-3-yl]-2,3-dihydro-1,4-benzoxazepin-4(5H)-yl}pyrimidin-2-amine]
15 | 6.30 to 7.00 | Cc1cc(-c2ccncc2)cc2c1OCCN(c1nc(N)nc(C)c1C(C)C)C2 [Compound 75]
16 | 6.30 to 7.00 | Cc1cc(-c2cccnc2)cc2c1OCCN(c1nc(N)nc(C)c1C(C)C)C2 [Compound 76, 4-methyl-5-(1-methylethyl)-6-(9-methyl-7-pyridin-3-yl-2,3-dihydro-1,4-benzoxazepin-4(5H)-yl)pyrimidin-2-amine]
17 | 6.30 to 7.00 | COc1ccc(-c2cc(C)c3c(c2)CN(c2nc(N)nc(C)c2C(C)C)CCO3)cc1OC [Compound 78, 4-{7-[3,4-bis(methyloxy)phenyl]-9-methyl-2,3-dihydro-1,4-benzoxazepin-4(5H)-yl}-6-methyl-5-(1-methylethyl)pyrimidin-2-amine]
18 | ≥ 7.00 | Cc1cc(-c2cn[nH]c2)cc2c1OCCN(c1nc(N)nc(C)c1C(C)C)C2 [Compound 80, 4-methyl-5-(1-methylethyl)-6-[9-methyl-7-(1H-pyrazol-4-yl)-2,3-dihydro-1,4-benzoxazepin-4(5H)-yl]pyrimidin-2-amine]
19 | 6.30 to 7.00 | Cc1cc(-c2cnc(N)nc2)cc2c1OCCN(c1nc(N)nc(C)c1C(C)C)C2 [Compound 81, 4-[7-(2-aminopyrimidin-5-yl)-9-methyl-2,3-dihydro-1,4-benzoxazepin-4(5H)-yl]-6-methyl-5-(1-methylethyl)pyrimidin-2-amine]
20 | ≥ 7.00 | Cc1cc(-c2cnc(N)s2)cc2c1OCCN(c1nc(N)nc(C)c1C(C)C)C2 [Compound 84, 4-[7-(2-amino-1,3-thiazol-5-yl)-9-methyl-2,3-dihydro-1,4-benzoxazepin-4(5H)-yl]-6-methyl-5-(1-methylethyl)pyrimidin-2-amine]
21 | ≥ 7.00 | CCc1nc(CN(C)C)nc(N2CCOc3c(C)cc(-c4cnc5sc(N)nc5c4)cc3C2)c1CC [Compound 85, 6-(4-{2-[(dimethylamino)methyl]-5,6-diethylpyrimidin-4-yl}-9-methyl-2,3,4,5-tetrahydro-1,4-benzoxazepin-7-yl)[1,3]thiazolo[5,4-b]pyridin-2-amine]
22 | ≥ 7.00 | Cc1cc(-c2cnc3sc(N)nc3c2)cc2c1OCCN(c1ncnc(C)c1C(C)C)C2 [Compound 87, 6-{9-methyl-4-[6-methyl-5-(1-methylethyl)pyrimidin-4-yl]-2,3,4,5-tetrahydro-1,4-benzoxazepin-7-yl}[1,3]thiazolo[5,4-b]pyridin-2-amine]
23 | ≥ 7.00 | CCc1nc(CN(C)C)nc(N2CCOc3c(C)cc(-c4cnc5sc(N)nc5c4)cc3C2)c1C(C)C [Compound 88, 6-(4-{2-[(dimethylamino)methyl]-6-ethyl-5-(1-methylethyl)pyrimidin-4-yl}-9-methyl-2,3,4,5-tetrahydro-1,4-benzoxazepin-7-yl)[1,3]thiazolo[5,4-b]pyridin-2-amine]
24 | ≥ 7.00 | Cc1cc(-c2cnc3sc(N)nc3c2)cc2c1OCCN(c1nc(CNC(C)(C)C)nc(C)c1C(C)C)C2 [Compound 90, 6-{4-[2-{[(1,1-dimethylethyl)amino]methyl}-6-methyl-5-(1-methylethyl)pyrimidin-4-yl]-9-methyl-2,3,4,5-tetrahydro-1,4-benzoxazepin-7-yl}[1,3]thiazolo[5,4-b]pyridin-2-amine]
25 | ≥ 7.00 | Cc1cc(-c2cnc3sc(N)nc3c2)cc2c1OCCN(c1nc(CN3CCC(F)(F)C3)nc(C)c1C(C)C)C2 [Compound 91, 6-(4-{2-[(3,3-difluoropyrrolidin-1-yl)methyl]-6-methyl-5-(1-methylethyl)pyrimidin-4-yl}-9-methyl-2,3,4,5-tetrahydro-1,4-benzoxazepin-7-yl)[1,3]thiazolo[5,4-b]pyridin-2-amine]
26 | ≥ 7.00 | Cc1cc(-c2cnc3sc(N)nc3c2)cc2c1OCCN(c1nc(C(O)C(F)(F)F)nc(C)c1C(C)C)C2 (centres unmarked) [Compound 94, 1-{4-[7-(2-amino[1,3]thiazolo[5,4-b]pyridin-6-yl)-9-methyl-2,3-dihydro-1,4-benzoxazepin-4(5H)-yl]-6-methyl-5-(1-methylethyl)pyrimidin-2-yl}-2,2,2-trifluoroethanol]
27 | ≥ 7.00 | Cc1nc(C)c(C(C)C)c(N2CCOc3c(C)cc(-c4cnc5sc(N)nc5c4)cc3C2)n1 [Compound 104, 6-{4-[2,6-dimethyl-5-(1-methylethyl)pyrimidin-4-yl]-9-methyl-2,3,4,5-tetrahydro-1,4-benzoxazepin-7-yl}[1,3]thiazolo[5,4-b]pyridin-2-amine]
28 | ≥ 7.00 | Cc1cc(-c2cnc3sc(N)nc3c2)cc2c1OCCN(c1nc(CC#N)nc(C)c1C(C)C)C2 [Compound 105, {4-[7-(2-amino[1,3]thiazolo[5,4-b]pyridin-6-yl)-9-methyl-2,3-dihydro-1,4-benzoxazepin-4(5H)-yl]-6-methyl-5-(1-methylethyl)pyrimidin-2-yl}acetonitrile]
29 | ≥ 7.00 | CC(=O)Nc1ncc(-c2cc(C)c3c(c2)CN(c2nc(N)nc(C)c2C(C)C)CCO3)s1 [Compound 106, N-(5-{4-[2-amino-6-methyl-5-(1-methylethyl)pyrimidin-4-yl]-9-methyl-2,3,4,5-tetrahydro-1,4-benzoxazepin-7-yl}-1,3-thiazol-2-yl)acetamide]
